ChEMBL document CHEMBL4765354, “Structure guided design of potent indole-based ATX inhibitors bearing hydrazone moiety with tumor suppression effects” (Eur J Med Chem, 2020)

Experiments:
[1] = biological target: Autotaxin (Homo sapiens, UniProt Q13822); test: Inhibition of human C-terminal His6-tagged ATX beta expressed in Sf9 insect cells using FS-3 as substrate preincubated for 45 mins followed by substrate addition and measured at 1 min interval for 30 mins by fluorescence assay
[2] = tested on: MCF7; test: Antiproliferative activity against human MCF7 cells measured after 72 hrs by MTT assay; assay type: functional, cell-based; details: MCF7, 72 h
[3] = tested on: MDA-MB-231; test: Antiproliferative activity against human MDA-MB-231 cells measured after 72 hrs by MTT assay; assay type: functional, cell-based; details: MDA-MB-231, 72 h
[4] = tested on: A549; test: Antiproliferative activity against human A549 cells measured after 72 hrs by MTT assay; assay type: functional, cell-based; details: A549, 72 h
[5] = tested on: NCI-H2228; test: Antiproliferative activity against human NCI-H2228 cells measured after 72 hrs by MTT assay; assay type: functional, cell-based; details: NCI-H2228, 72 h

SMILES | IC50 [1] | IC50 [2] | IC50 [3] | IC50 [4] | IC50 [5]
CCN1CCN(Cc2csc(-c3ccc4c(c3)c(/C(=N/Nc3nc(-c5ccc(OC)cc5)c(C#N)s3)C(F)(F)F)cn4CC)n2)CC1 | 0.93 µM | 4.67 µM |  | > 15 µM | 
CCn1cc(/C(=N/Nc2nc3ccccc3s2)C(F)(F)F)c2cc(-c3nc(CN4CCCCC4)cs3)ccc21 | 0.107 µM | 3.12 µM |  | > 15 µM | 7.93 µM
CCn1cc(/C(=N/Nc2nc3ccccc3s2)C(F)(F)F)c2cc(-c3nc(CN4CCN(C)CC4)cs3)ccc21 | 0.116 µM | 2.78 µM | 1.45 µM | 7.43 µM | 8.51 µM
CCN1CCN(C(=O)C2CCN(c3cc4c(/C=N/Nc5nc(-c6ccc(F)cc6)c(C#N)s5)c(C)[nH]c4cc3F)CC2)CC1 | 0.159 µM |  | 1.14 µM | > 15 µM | 
Cc1[nH]c2cc(F)c(N3CCN(CCN(C)C)CC3)cc2c1/C(=N/Nc1nc(-c2ccc(F)cc2)c(C#N)s1)C(F)(F)F | 0.019 µM | 1.01 µM | 0.79 µM | 13.4 µM | > 15 µM
CCn1cc(/C(=N/Nc2nc(-c3ccc(OC)cc3)c(C#N)s2)C(F)(F)F)c2cc(-c3nc(CN4CCC[C@H]4C(=O)O)cs3)ccc21 | 0.98 µM | 1.51 µM | 1.23 µM | > 15 µM | 
Cc1[nH]c2cc(F)c(N3CCC(C(=O)N4CCCC4)CC3)cc2c1/C(=N/Nc1nc(-c2ccc(F)cc2)c(C#N)s1)C(F)(F)F | 0.057 µM | 0.75 µM |  | 9.07 µM | > 15 µM
CCc1nc2c(C)cc(N3CCN(CC(=O)N4CC(O)C4)CC3)cn2c1N(C)c1nc(-c2ccc(F)cc2)c(C#N)s1 [ZIRITAXESTAT] |  | 8.32 µM | 6.27 µM | > 15 µM | > 15 µM
COc1ccc(-c2nc(N/N=C(/c3c(C)[nH]c4cc(F)c(N5CCN(CCN(C)C)CC5)cc34)C(F)(F)F)sc2C#N)cc1 | 0.167 µM | 2.91 µM | 1.23 µM | > 15 µM | 11.5 µM
CCn1cc(/C(=N/Nc2nc3ccccc3s2)C(F)(F)F)c2cc(-c3nc(CN4CCOCC4)cs3)ccc21 | 0.201 µM | 2.73 µM | 7.3 µM | 9.37 µM | 
CCn1cc(/C(=N/Nc2nc3ccccc3s2)C(F)(F)F)c2cc(-c3nc(CN4CCCC4)cs3)ccc21 | 0.126 µM | 1.79 µM |  | 8.01 µM | 6.31 µM
CCn1cc(/C(=N/Nc2nc(-c3ccc(OC)cc3)c(C#N)s2)C(F)(F)F)c2cc(-c3nc(CN4CCC[C@H]4CO)cs3)ccc21 | 0.87 µM | 4.26 µM |  | 10.9 µM | 
O=C(CCN1CCN(C(=O)OCc2cc(Cl)cc(Cl)c2)CC1)c1ccc2[nH]c(=O)oc2c1 |  | 2.31 µM | 4.17 µM | 8.21 µM | 11.3 µM
CCn1cc(/C(=N/Nc2nc3ccccc3s2)C(F)(F)F)c2cc(-c3nc(CN4CCC[C@H]4C(=O)O)cs3)ccc21 | 0.072 µM | 1.92 µM | 3.49 µM | > 15 µM | 
CCn1cc(/C(=N/Nc2nc3ccccc3s2)C(F)(F)F)c2cc(-c3nc(CN4CCC(O)CC4)cs3)ccc21 | 0.0021 µM | 0.43 µM | 0.31 µM | 11 µM | 7.18 µM
CCn1cc(/C(=N/Nc2nc3ccccc3s2)C(F)(F)F)c2cc(-c3nc(CN4CCC(C)CC4)cs3)ccc21 | 0.337 µM |  | 2.08 µM |  | > 15 µM
CCn1cc(/C(=N/Nc2nc(-c3ccc(Cl)cc3)c(C#N)s2)C(F)(F)F)c2cc(-c3nc(CN4CCC[C@H]4CO)cs3)ccc21 | 1.41 µM |  | 1.21 µM |  | > 15 µM
Cc1[nH]c2cc(F)c(N3CCC(C(=O)N4CCOCC4)CC3)cc2c1/C=N/Nc1nc(-c2ccc(F)cc2)c(C#N)s1 | 0.104 µM | 1.67 µM | 3.67 µM |  | > 15 µM

Results, then the compound that gave them:

IC50 [1] | IC50 [2] | IC50 [3] | IC50 [4] | IC50 [5] | SMILES
3.43 µM | 1.57 µM | 5.46 µM | > 15 µM | 5.71 µM | CCn1cc(/C(=N/Nc2nc(-c3ccc(F)cc3)c(C#N)s2)C(F)(F)F)c2cc(-c3nc(CN4CCCCC4)cs3)ccc21
1.72 µM | 4.83 µM | 4.51 µM | 9.21 µM | 9.65 µM | Cn1cc(/C(=N/Nc2nc(-c3ccc(F)cc3)c(C#N)s2)C(F)(F)F)c2cc(-c3nc(CN4CCC(O)CC4)cs3)ccc21
1.25 µM | 1.79 µM |  | 6.92 µM |  | CCn1cc(/C(=N/Nc2nc(-c3ccc(F)cc3)c(C#N)s2)C(F)(F)F)c2cc(-c3nc(CN4CC(O)C4)cs3)ccc21
5.27 µM |  |  |  |  | CCn1cc(/C(=N/Nc2nc(-c3ccc(F)cc3)c(C#N)s2)C(F)(F)F)c2cc(-c3nc(CN4CCC[C@H]4CO)cs3)ccc21
1.21 µM |  | 1.56 µM |  | > 15 µM | CCn1cc(/C(=N/Nc2nc(-c3ccc(Cl)cc3)c(C#N)s2)C(F)(F)F)c2cc(-c3nc(CN4CCN(C)CC4)cs3)ccc21
0.61 µM | 0.65 µM | 1.27 µM | > 15 µM | > 15 µM | CCn1cc(/C(=N/Nc2nc(-c3ccc(F)cc3)c(C#N)s2)C(F)(F)F)c2cc(-c3nc(CN4CCC[C@H]4C(=O)O)cs3)ccc21
3.05 µM |  | 5.17 µM | 13.7 µM | > 15 µM | CCn1cc(/C(=N/Nc2nc(-c3ccc(OC)cc3)c(C#N)s2)C(F)(F)F)c2cc(-c3nc(CN4CCCC4)cs3)ccc21
2.05 µM | 5.13 µM |  | 10.3 µM |  | CCn1cc(/C(=N/Nc2nc(-c3ccc(F)cc3)c(C#N)s2)C(F)(F)F)c2cc(-c3nc(CN4CCC(O)CC4)cs3)ccc21
0.56 µM | 1.37 µM | 3.98 µM |  | > 15 µM | CCn1cc(/C(=N/Nc2nc(-c3ccc(OC)cc3)c(C#N)s2)C(F)(F)F)c2cc(-c3nc(CN4CCC(O)CC4)cs3)ccc21
4.21 µM |  |  |  |  | CCn1cc(/C(=N/Nc2nc(-c3ccc(Cl)cc3)c(C#N)s2)C(F)(F)F)c2cc(-c3nc(CN4CCC(C)CC4)cs3)ccc21
1.85 µM | 2.79 µM | 8.21 µM | 4.93 µM | 2.6 µM | CCn1cc(/C(=N/Nc2nc(-c3ccc(OC)cc3)c(C#N)s2)C(F)(F)F)c2cc(-c3nc(CN4CCN(C)CC4)cs3)ccc21
2.97 µM | 3.25 µM | 2.72 µM | 9.41 µM | > 15 µM | Cn1cc(/C(=N/Nc2nc(-c3ccc(Cl)cc3)c(C#N)s2)C(F)(F)F)c2cc(-c3nc(CN4CCOCC4)cs3)ccc21
1.31 µM | 2.85 µM | 2.37 µM | > 15 µM | 6.31 µM | CCn1cc(/C(=N/Nc2nc(-c3ccc(F)cc3)c(C#N)s2)C(F)(F)F)c2cc(-c3nc(CN4CCCC4)cs3)ccc21
2.45 µM | 5.03 µM | 1.56 µM | > 15 µM |  | CCn1cc(/C(=N/Nc2nc(-c3ccc(Cl)cc3)c(C#N)s2)C(F)(F)F)c2cc(-c3nc(CN4CCCC4)cs3)ccc21
> 10 µM | 2.23 µM |  | 9.81 µM |  | CCn1cc(/C(=N/Nc2nc(-c3ccc(OC)cc3)c(C#N)s2)C(F)(F)F)c2cc(-c3nc(CN4CCC(C)CC4)cs3)ccc21
0.78 µM | 3.25 µM |  | 7.31 µM | > 15 µM | CCn1cc(/C(=N/Nc2nc(-c3ccc(F)cc3)c(C#N)s2)C(F)(F)F)c2cc(-c3nc(CN4CCN(CCO)CC4)cs3)ccc21
6.07 µM |  |  |  |  | CCn1cc(/C(=N/Nc2nc(-c3ccc(Cl)cc3)c(C#N)s2)C(F)(F)F)c2cc(-c3nc(CN4CCCCC4)cs3)ccc21
2.06 µM |  | 5.12 µM | > 15 µM |  | CCn1cc(/C(=N/Nc2nc(-c3ccc(OC)cc3)c(C#N)s2)C(F)(F)F)c2cc(-c3nc(CN4CCOCC4)cs3)ccc21
2.37 µM | 2.31 µM | 4.97 µM | > 15 µM | > 15 µM | CCn1cc(/C(=N/Nc2nc(-c3ccc(F)cc3)c(C#N)s2)C(F)(F)F)c2cc(-c3nc(CN4CCOCC4)cs3)ccc21
2.46 µM | > 15 µM | 3.41 µM |  | > 15 µM | CCn1cc(/C(=N/Nc2nc(-c3ccc(Cl)cc3)c(C#N)s2)C(F)(F)F)c2cc(-c3nc(CN4CC(O)C4)cs3)ccc21
1.43 µM |  | 2.33 µM | > 15 µM |  | CCn1cc(/C(=N/Nc2nc(-c3ccc(Cl)cc3)c(C#N)s2)C(F)(F)F)c2cc(-c3nc(CN4CCC(O)CC4)cs3)ccc21
1.54 µM | 4.33 µM | 2.69 µM | > 15 µM |  | CCN1CCN(Cc2csc(-c3ccc4c(c3)c(/C(=N/Nc3nc(-c5ccc(F)cc5)c(C#N)s3)C(F)(F)F)cn4CC)n2)CC1
3.02 µM | 2.1 µM |  | 11.7 µM |  | CCn1cc(/C(=N/Nc2nc(-c3ccc(F)cc3)c(C#N)s2)C(F)(F)F)c2cc(-c3nc(CN4CCN(C)CC4)cs3)ccc21
0.91 µM | > 15 µM | 2.43 µM | > 15 µM | > 15 µM | CCn1cc(/C(=N/Nc2nc(-c3ccc(OC)cc3)c(C#N)s2)C(F)(F)F)c2cc(-c3nc(CN4CC(O)C4)cs3)ccc21
2.13 µM | 5.73 µM | 3.21 µM | 13.8 µM | > 15 µM | CCN1CCN(Cc2csc(-c3ccc4c(c3)c(/C(=N/Nc3nc(-c5ccc(Cl)cc5)c(C#N)s3)C(F)(F)F)cn4CC)n2)CC1
